Results as given in patent US20160051493A1, “METHODS OF TREATMENT OF KERATINOCYTE-DERIVED LESIONS” (THE TRUSTEES OF COLUMBIA UNIVERSITY IN THE CITY OF NEW YORK, priority 2012, published 2016).
Like-named read-outs stand apart in the source and are kept apart here.

Assays:
[1] = test system: keratinocyte differentiation genes (LOR, FLG, IVL, TGM3); conditions: 50 μM, 24 hours
From the text: RNA was isolated using RNeasy Kit (Qiagen) and reversed transcribed. Four technical replicates were run for each primer set and cDNA sample using SYBR Green (Applied Biosystems) for quantitative readout. Complementary DNA was synthesized with oligo-dT primers and SuperScript III (Invitrogen). Primers were generated in Primer3. Primer pairs were optimized for qPCR and validated in control specimens. […] Melting curves were generated for all products to confirm a single amplicon for each product. To determine gene expression in each sample, cycle thresholds (CT) of the gene of interest were normalized to the reference gene GAPDH (ΔCT). Fold change was determined using the ΔΔCT method where vehicle or growth conditions were used as the calibrator (ΔΔCT=[(CT(target gene)−CT(reference gene)]−[CT(calibrator)]−CT(reference gene)]. All gene amplifications were performed in quadruplicate.

[2] = test system: normal human keratinocytes; assay: Keratinocyte cell counts (DAPI), morphology and EdU proliferation assay after 24 h treatment; conditions: 24 hours
Protocol: (§1) Normal human keratinocytes were isolated from human foreskins by undergoing two enzymatic dissociation steps, first in dispase then in trypsin. Cells were cultured in EpiLife supplemented with human keratinocyte growth supplement (HKGS; Invitrogen). For all experiments with undifferentiated cells, keratinocytes were harvested or images at ˜75% confluency. Differentiation was induced by adding CaCl2 to the EpiLife media to reach a final [Ca2+] of 1.2 mM. Cells were typically cultured for 3 days under differentiation conditions before they were assayed. Keratinocytes were cultured for <5 passages. Purified Camphor (CAS #76-22-2), 2-APB (Tocris) or vehicle (1% EtOH)-containing media were used as indicated.
Cells were treated with 2-APB or camphor for 24 hours at 37° C., exposed to EdU for 45 min, fixed and stained with DAPI for cell counting. EdU Click-It assays (Invitrogen) were used to assess cell-cycle entry. The cells were then fixed and stained with DAPI. Three fields per well were assayed via a 20× objective and there were 4 wells per treatment in each experiment. EdU=5-ethynyl-2′-deoxyuridine.
As Ca^2+ triggers the commitment switch from proliferation to differentiation in keratinocytes, it was reasoned that increasing intracellular calcium by incubating keratinocytes in TRP agonists might be sufficient to induce this cell-fate switch in low-calcium growth media. To test this hypothesis, normal human keratinocytes were cultured for 24 hours under low-Ca^2+ conditions in the presence of low (12.5 μM), half-maximal (50 μM) and saturating (100 μM) concentrations of 2-APB (FIG. 3A) or camphor (0-8 mM) (FIG. 3E). These TRP agonists were chosen because they reliably elicited intracellular calcium signaling in normal human keratinocytes (FIG. 1A-1E).
As camphor can activate both TRPV3 and TRPV1 channels, these experiments were repeated in the presence of a specific TRPV1 antagonist, AMG-9810 (Gavva et al., 2005).

SCC-73 cells = conditions: 50 μM, 14 days
Protocol: (§2) Organotypic human skin cultures and primary SCC lines were isolated from human SCCs and cultured as previously described (Bachelor et al., 2011). In brief, human fibroblasts were seeded in a collagen matrix on a 70 μm filter insert and incubated at 37° C. for 5-7 days. Human keratinocytes or SCC cells were then seeded on the apical surface of the fibroblast-collagen matrix and cultured for 2 days submerged in media to allow monolayer formation. The media was then removed from the apical surface (raising), exposing the keratinocytes or SCC cells to air. The cultures were maintained in this fashion for up to 14 days, and the media to the fibroblasts below was changed every 2-3 days. At the time of raising, 50 μM 2-APB or vehicle (1% EtOH) was added to the media.
(§3) Sections were fixed in 4% paraformaldehyde, paraffin embedded and sectioned at 8 μm. Hematoxylin and Eosin (H&E) stained sections were imaged with a bright field microscope equipped with a 10× (0.3 NA) and 20× (0.4 NA) objectives and an Axiocam color CCD camera (Zeiss AxioObserver.Z1). Epidermal thickness was assessed by measuring the nucleated layers with ImageJ software (NIH ImageJ). Number of invading cells was determined by counting the number of round nuclei below the basement membrane per 10× field (fibroblast nuclei are flatten and were excluded). Four non-serial paraffin sections per experiment were examined. Six random frames per section were quantified.
(§4) As TRP-channels are expressed in human SCC keratinocytes and TRP agonists arrest keratinocyte proliferation, it was reasoned that TRP agonists might be candidates for SCC-targeted therapy. To test this notion, organotypic human skin cultures were seeded with SCC cells.

SCC-39 cells = conditions: 50 μM, 14 days
Protocol: as §2, §3, §4

SCC-13 cells = conditions: 50 μM, 14 days
Protocol: as §2, §3, §4

TRPC1 = TRPC1 (Homo sapiens, UniProt P48995); conditions: cited from earlier work
TRPV3 = conditions: Activation, cited from earlier work
[3] = test system: normal human epidermal keratinocytes; assay: Ratiometric fura-2 live-cell calcium imaging of keratinocytes; type: cell-based; conditions: responders F340:F380 increase ≧20%
Protocol: as §1
Human keratinocytes and SCC cells were washed in Ringer's solution (in mM: NaCl 140, KCl 5, D-glucose 10, HEPES 10, CaCl2 2, MgCl2 2, pH 7.2) and loaded with 5 μM fura-2AM and 1 μM pluronic (Invitrogen) for 30 minutes in the dark. During live-cell imaging, saturating concentrations of TRP agonists (10 mM Camphor, 100 μM 2-APB 1 μM Capsaicin, 300 μM Mustard oil or 3 μM 4αPDD) in Ringer's were used. Cells were imaged for 20 s to establish a baseline and then acutely treated with each agonist for 60 seconds. Imaging was performed on an Olympus IX81 microscope with a 20× (NA 0.17) objective and a Hamamatsu ORCA-R2 camera. 340- and 380-nm excitation and 540-nm emission filters were used to capture fura-2 fluorescence. Data are expressed as a ratio of fluorescent signals (340/380). All data acquisition was performed in MetaFluor. Data analysis was performed with custom algorithms in IgorPro. Cells with baseline levels ±2 SD above the mean were excluded from analysis as unhealthy. Responders were designated as cells whose 340/380 ratio was ≧20% above baseline.
TRP channels are selectively activated by endogenous and exogenous ligands at micromolar to millimolar concentrations. Since TRP channel activity increases over this range to allow graded Ca^2+ influx, receptor activity levels can be monitored by live-cell Ca^2+ imaging. A ratiometric calcium indicator (Fura-2) was employed to determine whether a panel of TRP-channel agonists elicited cytoplasmic calcium increases in human epidermal keratinocytes. (FIG. 1A-1E, FIG. 2A-2B, and Table 3).
Normal human keratinocytes were cultured in low-calcium media to promote proliferation or in 1.2-mM calcium media to induce differentiation. For live-cell imaging, keratinocytes were then washed and bathed in Ringer's solution containing 2 mM calcium so that calcium signals could be directly compared between cell populations.
In keratinocytes, increased intracellular calcium stimulates the terminal differentiation process. To determine whether camphor oil and its abundant constituents are directly bioactive on epithelial keratinocytes, a ratiometric Ca2+ indictor (Fura-2) was employed to test whether a panel of terpenes elicited cytoplasmic Ca2+ increases in undifferentiated human epidermal keratinocytes (FIG. 19A-19C). Keratinocytes were cultured according to our standard methods. For live-cell imaging, keratinocytes were bathed in Ringer's solution containing 2 mM Ca2+.

human keratinocytes = conditions: 50 μM, 7 days
Protocol: as §2
as §3, with “Four non-serial paraffin sections per experiment were examined.” left out

ORAI1 = ORAI1 (Homo sapiens, UniProt Q96D31); conditions: Inhibition; cited from earlier work
ORAI1, sequence (Q96D31 whole entry, species assumed): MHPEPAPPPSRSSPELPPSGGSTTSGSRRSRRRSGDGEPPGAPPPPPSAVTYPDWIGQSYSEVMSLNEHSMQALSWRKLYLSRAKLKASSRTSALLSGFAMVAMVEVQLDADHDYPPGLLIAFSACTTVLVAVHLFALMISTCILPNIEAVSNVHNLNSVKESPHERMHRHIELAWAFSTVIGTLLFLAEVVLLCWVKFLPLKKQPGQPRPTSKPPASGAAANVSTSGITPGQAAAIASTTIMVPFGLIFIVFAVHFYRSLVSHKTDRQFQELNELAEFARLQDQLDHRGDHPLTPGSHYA

TRPC1, sequence (P48995 whole entry, species assumed): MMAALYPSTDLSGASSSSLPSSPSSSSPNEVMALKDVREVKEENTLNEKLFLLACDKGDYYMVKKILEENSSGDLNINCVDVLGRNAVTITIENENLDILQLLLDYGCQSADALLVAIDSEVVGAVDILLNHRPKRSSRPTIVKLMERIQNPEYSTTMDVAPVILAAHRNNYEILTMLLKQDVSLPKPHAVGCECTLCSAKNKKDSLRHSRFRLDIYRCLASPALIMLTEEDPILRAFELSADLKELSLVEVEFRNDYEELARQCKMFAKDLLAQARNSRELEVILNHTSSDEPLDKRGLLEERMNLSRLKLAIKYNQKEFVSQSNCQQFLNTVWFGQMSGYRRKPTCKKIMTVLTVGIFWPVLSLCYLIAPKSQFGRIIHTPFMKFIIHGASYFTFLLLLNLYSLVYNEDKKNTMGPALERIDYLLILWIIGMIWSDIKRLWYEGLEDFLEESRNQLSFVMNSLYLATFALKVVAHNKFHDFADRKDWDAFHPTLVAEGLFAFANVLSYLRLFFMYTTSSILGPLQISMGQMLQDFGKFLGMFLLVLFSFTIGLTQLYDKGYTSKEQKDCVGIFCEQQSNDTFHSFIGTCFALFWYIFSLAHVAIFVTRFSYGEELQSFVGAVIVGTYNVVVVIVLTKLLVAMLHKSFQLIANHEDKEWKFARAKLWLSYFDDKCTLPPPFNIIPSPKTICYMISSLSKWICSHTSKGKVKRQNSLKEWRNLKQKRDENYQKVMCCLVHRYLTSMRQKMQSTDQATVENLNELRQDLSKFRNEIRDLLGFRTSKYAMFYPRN

Compound: NCCOB(c1ccccc1)c1ccccc1 [2-APB, 2-aminoethoxydiphenyl borate]
- involucrin (IVL) expression [1]: little change
- transglutaminase 3 (TGM3) expression [1]: little change
- FLG transcript level induction versus vehicle ([1]; low-calcium growth media): more than 15 fold
- LOR transcript level induction versus vehicle ([1]; low-calcium growth media): more than 15 fold
- EdU incorporation ([2]; 12.5 μM): significant increased
- cell population compared with vehicle-treated controls ([2]; 12.5 μM, low-Ca2+, one set of primary keratinocytes): 325+/−5%
- EdU incorporation (cell-cycle arrest) ([2]; 50 μM): completely inhibited
- cell number ([2]; 50 μM): slight reduction
- keratinocyte morphology and cell numbers (cytotoxicity) ([2]; 100 μM): necrotic morphological changes and a loss of cell numbers
- keratinocyte morphology ([2]; 12.5 or 50 μM): indistinguishable from vehicle-treated cells
- concentration that arrests proliferation without inducing necrotic changes [2]: 50 µM
- invasive nature and growth of tumor cells (SCC-73 cells): dramatically reduced
- tumor thickness (SCC-73 cells): reduced tumor thickness
- inhibition of cell invasion versus vehicle-treated cultures (SCC-39 cells): > 93%
- reduction of tumor formation above the dermis (SCC-39 cells): > 37%
- tumor thickness (SCC-39 cells): reduced tumor thickness
- reduction of tumor formation above the dermis (SCC-13 cells): > 37%
- tumor thickness (SCC-13 cells): reduced tumor thickness
- Effective concentration Range (TRPC1; Activation): Range = 5-10 μM
- Effective concentration Range (TRPC1; Inhibition): Range = 50-100 μM
- Effective concentration Range (TRPV3): Range = 3.2-320 μM
- EC50 (TRPV3; read-out: Effective concentration EC50): 28 µM
- % Responders (differentiated) Mean ± SEM ([3]; differentiated in 1.2 mM Ca2+, 4αPDD 3 μM, camphor 10 mM, 2-APB 100 μM): 13.0 ± 7.2%
- % Responders (undifferentiated) Mean ± SEM or SD ([3]; growth conditions, saturating agonist (4αPDD 3 μM, camphor 10 mM, 2-APB 100 μM, capsaicin 1 μM, mustard oil 300 μM), SD for capsaicin and mustard oil): 2.5 ± 0.9%
- nucleated epidermal layers (human keratinocytes): one-third reduction
- Effective concentration Range (ORAI1): Range = 5-50 μM
